Assay: activity of peptide, test not specified

Substance: CYS-THR-THR-ASN-TYR-THR-CYS (CTTNYTC; printed: CYS-THR-THR-ASN-TYR-THR-CYS) [seven amino acid peptide]
- activity: active
